Source: US20090087845A1, “Genetic Markers Of True Low Birth Weight” (priority 2005, published 2009)
Values joined by “and” are separate entries in the source; they are usually repeats but may differ in a detail not shown here. Identical values can stand only once.

Test system: placental gene expression
Assay: Placental gene expression (Affymetrix Rat Genome Chip 230.2) after SSRI (fluoxetine) exposure throughout gestation
Format: in vivo
Conditions: placenta, SSRI-exposed samples
Method: Gene expression data from pregnant rats under different forms of dietary restriction was gathered. […] (N=8) • Group 2 (CR50): Rats Given 50% of their Normal Daily Intake of Food. (N=5) • Group 3 (CR70): Rats Given 70% of their Normal Daily Intake of Food. […] (N=6) Placentas from the rats of each Group were harvested on Day 21 of gestation. RNA was extracted and gene expression was measured based on hybridization of RNA to Affymetrix Rat Genome Chips™ (230.2) (Affymetrix, Santa Clara, Calif.).
In order to determine whether placental gene expression profiling can be used to identify other prenatal exposures such as toxicants and drugs, a group of rats with drug exposure was monitored as described above. […] As with control, CR50, CR70, and HF groups, placentas from the mothers were sampled after 21 days of gestation and gene expression monitored utilizing an Affymetrix Rat Genome Chip.

CNCCC(Oc1ccc(C(F)(F)F)cc1)c1ccccc1 (centres unmarked) [fluoxetine, Fluoxetine]
expression, probeset 1368985_at: 4.725 and 4.454 and 4.646 and 4.715 and 4.588 and 4.472 | expression, probeset 1369005_at: 5.188 and 5.546 and 5.291 and 5.305 and 5.241 and 5.222 | expression, probeset 1369014_at: 4.757 and 5.004 and 4.708 and 4.543 and 4.616 and 4.993 | expression, probeset 1369051_at: 5.588 and 5.207 and 4.835 and 5.011 and 5.144 and 5.186 | expression, probeset 1369192_at: 5.561 and 5.364 and 5.202 and 5.355 and 5.327 and 5.66 | expression, probeset 1369754_a_at: 8.583 and 8.277 and 8.264 and 8.283 and 8.554 and 8.483 | expression, probeset 1369894_at: 3.616 and 3.758 and 3.897 and 3.839 and 4.008 and 3.982 | expression, probeset 1370115_at: 4.967 and 4.917 and 4.824 and 4.622 and 4.818 and 4.719 | expression, probeset 1370260_at: 7.313 and 7.599 and 7.249 and 7.038 and 7.707 and 6.879 | expression, probeset 1370521_at: 8.48 and 8.58 and 8.737 and 8.764 and 8.624 and 8.798 | expression, probeset 1370682_at: 5.579 and 5.507 and 5.51 and 5.944 and 5.574 and 5.843 | expression, probeset 1370688_at: 7.904 and 7.963 and 8.096 and 7.915 and 8.157 and 7.99 | expression, probeset 1370766_at: 4.633 and 4.679 and 4.503 and 4.578 and 4.207 and 4.398 | expression, probeset 1371435_at: 11.53 and 11.47 and 12.47 and 12.43 and 12.2189 and 12.12 | expression, probeset 1371813_at: 6.757 and 6.608 and 7.254 and 7.022 and 6.663 and 6.909 | expression, probeset 1372141_at: 9.643 and 9.597 and 10.34 and 10.39 and 9.957 and 10.19 | expression, probeset 1372462_at: 7.912 and 7.819 and 7.864 and 7.873 and 6.184 and 8.214 | expression, probeset 1372514_s_at: 8.136 and 8.21 and 8.071 and 8.128 and 7.741 and 8.134 | expression, probeset 1372593_at: 7.225 and 7.133 and 7.724 and 8.015 and 7.571 and 7.719 | expression, probeset 1373319_at: 9.595 and 9.441 and 10.05 and 10.11 and 10.07 and 9.901 | expression, probeset 1373396_at: 8.164 and 8.317 and 8.21 and 8.056 and 8.147 and 8.247 | expression, probeset 1373702_at: 7.559 and 7.846 and 7.181 and 7.332 and 7.377 and 7.496 | expression, probeset 1373804_at: 7.894 and 7.963 and 7.858 and 8.12 and 7.699 and 8.068 | expression, probeset 1373925_at: 6.195 and 6.159 | expression, probeset 1374112_at: 7.049 and 6.725 and 6.891 and 7.196 and 7.138 and 6.73 | expression, probeset 1374231_at: 8.494 and 8.998 and 8.117 and 8.316 and 7.948 and 8.466 | expression, probeset 1374656_at: 8.729 and 9.034 and 8.507 and 8.743 and 9.004 and 8.9546 | expression, probeset 1374739_at: 8.348 and 8.65 and 7.424 and 7.76 and 7.662 and 7.815 | expression, probeset 1374807_at: 6.505 and 6.904 and 6.697 and 6.907 and 6.749 and 6.775 | expression, probeset 1375407_at: 4.487 and 4.33 and 4.344 and 4.489 and 4.605 and 4.326 | expression, probeset 1375738_at: 4.993 (2×) and 4.843 and 5.388 and 5.322 and 5.141 | expression, probeset 1376136_at: 5.074 and 4.867 and 4.557 and 4.873 and 4.805 and 4.931 | expression, probeset 1376218_a_at: 4.961 and 5.16 and 4.667 and 4.873 and 4.562 and 4.552 | expression, probeset 1376278_at: 6.191 and 6.405 and 5.934 and 6.175 and 6.205 and 6.006 | expression, probeset 1376289_at: 3.746 and 3.75 and 3.659 and 3.772 and 3.71 and 3.697 | expression, probeset 1376294_at: 7.495 and 7.951 and 7.425 and 7.689 and 7.578 and 7.48 | expression, probeset 1376844_at: 3.958 and 3.92 and 4.036 and 4.211 and 4.082 and 4.214 | expression, probeset 1376852_at: 6.78 and 6.537 and 6.455 and 6.699 and 6.862 and 6.682 | expression, probeset 1377028_at: 5.528 and 5.846 and 5.206 and 5.427 and 5.578 and 5.375 | expression, probeset 1377123_at: 8.958 and 9.069 and 8.729 and 8.819 and 8.853 and 8.789 | expression, probeset 1377210_at: 5.83 and 5.617 and 6.032 and 5.854 and 6.198 and 5.93 | expression, probeset 1377414_at: 7.593 | expression, probeset 1377476_at: 3.935 and 3.899 and 3.84 and 3.865 and 3.998 and 4.107 | expression, probeset 1377621_at: 8.676 and 8.675 and 8.549 and 8.432 and 8.896 and 8.593 | expression, probeset 1377746_at: 6.432 and 6.591 and 6.425 and 6.509 and 6.484 and 6.597 | expression, probeset 1378275_at: 8.581 and 8.43 and 8.773 and 8.828 and 8.515 and 8.555 | expression, probeset 1378318_at: 7.572 and 7.8 and 8.112 and 7.987 and 7.864 and 8.147 | expression, probeset 1378355_a_at: 5.807 and 6.412 and 5.853 and 5.536 and 5.777 and 6.037 | expression, probeset 1378642_at: 6.331 and 6.197 and 6.546 and 6.861 and 6.598 and 6.634 | expression, probeset 1378705_at: 8.279 and 8.34 and 7.828 and 7.561 and 7.947 and 7.98 | expression, probeset 1378872_at: 4.782 and 4.711 and 4.621 and 4.863 and 4.867 and 4.775 | expression, probeset 1378992_at: 3.832 and 3.701 and 3.85 and 3.859 and 3.911 and 3.949 | expression, probeset 1379110_at: 3.965 and 4.036 and 3.739 and 3.917 and 3.886 and 3.804 | expression, probeset 1379140_at: 4.026 and 4.28 and 4.108 and 3.886 and 4.071 and 4.079 | expression, probeset 1379206_at: 6.486 and 6.611 and 6.213 and 6.405 and 6.472 and 6.395 | expression, probeset 1379235_x_at: 7.486 and 7.695 and 7.128 and 7.252 and 7.527 and 7.244 | expression, probeset 1379342_at: 6.297 and 6.3 and 6.275 and 6.188 and 6.259 and 6.187 | expression, probeset 1379408_at: 8.688 and 8.662 and 8.77 and 8.887 and 8.853 and 8.912 | expression, probeset 1379796_at: 5.201 and 4.92 and 5.205 and 5.072 and 5.171 and 5.031 | expression, probeset 1379827_at: 7.897 and 7.85 and 7.7663 and 7.925 and 7.632 and 7.663 | expression, probeset 1379963_at: 6.925 and 7.095 and 7.165 and 7.115 and 7.307 and 7.146 | expression, probeset 1379980_at: 7.864 and 7.817 and 8.195 and 8.083 and 7.784 and 8.003 | expression, probeset 1380152_at: 5.47 and 5.228 and 5.461 and 5.179 and 5.39 and 5.269 | expression, probeset 1380392_at: 6.093 and 5.622 and 5.425 and 5.398 and 5.781 and 5.646 | expression, probeset 1380454_at: 5.81 and 5.871 and 5.693 and 5.717 and 5.721 and 5.875 | expression, probeset 1381074_at: 4.343 and 4.301 and 4.059 and 4.183 and 4.17 and 4.086 | expression, probeset 1381122_at: 5.406 and 5.219 and 5.499 and 5.148 and 5.434 and 5.212 | expression, probeset 1381286_at: 5.261 and 5.374 and 5.297 and 5.034 and 5.316 and 5.389 | expression, probeset 1381483_at: 3.996 and 4.01 and 3.983 and 3.972 and 3.97 and 4.017 | expression, probeset 1381872_at: 6.498 and 7.027 and 7.042 and 6.737 and 6.911 and 6.996 | expression, probeset 1381874_at: 6.734 and 6.453 and 6.457 and 6.588 and 6.285 and 6.523 | expression, probeset 1381941_at: 8.218 | expression, probeset 1381950_at: 3.397 and 3.37 and 3.47 and 3.379 and 3.404 | expression, probeset 1381966_at: 8.36 and 8.855 and 8.774 and 8.518 and 8.76 and 8.757 | expression, probeset 1382015_at: 7.649 and 7.911 and 7.376 and 7.559 and 7.728 and 7.55 | expression, probeset 1382056_at: 8.204 and 7.693 and 8.302 and 8.683 and 9.183 and 8.357 | expression, probeset 1382110_at: 7.206 and 7.183 and 6.692 and 6.852 and 6.784 and 6.862 | expression, probeset 1382513_at: 6.939 and 6.904 and 6.918 and 6.844 and 6.991 and 6.992 | expression, probeset 1382608_at: 5.493 and 5.536 and 5.441 and 5.641 and 5.553 and 5.573 | expression, probeset 1382825_at: 6.303 | expression, probeset 1382932_at: 5.367 and 5.211 and 5.239 and 5.252 and 5.387 and 5.359 | expression, probeset 1383132_at: 5.887 and 6.391 and 5.865 and 5.893 and 5.977 and 5.951 | expression, probeset 1383300_at: 8.422 and 8.732 and 8.861 and 8.982 and 9.071 and 8.854 | expression, probeset 1383309_at: 7.874 and 8.135 and 8.529 and 8.112 and 8.518 and 7.955 | expression, probeset 1383376_at: 6.632 and 7.028 and 7.303 and 6.987 and 6.76 and 6.955 | expression, probeset 1383430_at: 6.213 and 5.851 and 6.754 and 6.641 and 6.446 and 6.508 | expression, probeset 1383443_at: 5.895 and 5.907 and 6.025 and 5.854 and 5.859 and 6.136 | expression, probeset 1383472_at: 3.955 and 3.951 and 3.984 and 4.033 and 3.887 and 3.899 | expression, probeset 1383659_a_at: 5.774 and 5.519 and 5.386 and 5.431 and 4.833 and 6.496 | expression, probeset 1383667_at: 8 and 8.041 and 8.381 and 8.126 and 8.244 and 8.175 | expression, probeset 1383670_at: 7.784 and 7.593 and 7.74 and 7.592 and 7.856 and 7.209 | expression, probeset 1383900_at: 4.742 and 4.617 and 4.606 and 4.705 and 4.749 and 4.765 | expression, probeset 1383984_at: 3.997 and 4.264 and 4.189 and 4.266 and 4.14 and 4.315 | expression, probeset 1384135_at: 7.574 and 7.593 and 7.557 and 7.727 and 7.711 and 7.722 | expression, probeset 1384195_at: 5.325 and 5.826 and 5.609 and 5.355 and 5.716 and 5.368 | expression, probeset 1384374_at: 6.358 and 6.643 and 6.365 and 5.887 and 6.421 and 6.362 | expression, probeset 1384377_at: 7.233 and 7.134 and 7.085 and 7.15 and 7.214 and 7.158 | expression, probeset 1384467_at: 8.34 and 8.507 and 8.418 and 8.058 and 8.062 and 8.234
